Laboratory results taken from ChEMBL document CHEMBL3632586, “Designing, synthesis of selective and high-affinity chalcone-benzothiazole hybrids as Brugia malayi thymidylate kinase inhibitors: In vitro validation and docking studies” (Eur J Med Chem, 2015).
Converted amounts (≈) assume the structure as drawn.

What was measured:
[1] = Inhibition of recombinant Brugia malayi TMK using dTMP as substrate by pyruvate kinase/lactate dehydrogenase coupled assay
Brugia malayi [2] = assay: Antifilarial activity against adult Brugia malayi assessed as motility reduction at 2.5 uM/ml after 1 hr by microscopic analysis; format: functional
Brugia malayi [3] = assay: Antifilarial activity against adult Brugia malayi assessed as motility reduction after 1 hr by microscopic analysis; format: functional, organism-based
Brugia malayi [4] = assay: Antifilarial activity against adult Brugia malayi assessed as reduction in viability at 2.5 uM/ml after 24 to 48 hrs by MTT assay; format: functional
Brugia malayi [5] = assay: Antifilarial activity against adult Brugia malayi assessed as reduction in viability at 5 uM/ml after 24 to 48 hrs by MTT assay; format: functional
Brugia malayi [6] = assay: Antifilarial activity against Brugia malayi microfilariae assessed as motility reduction at 1.25 uM/ml after 1 hr by microscopic analysis; format: functional
[7] = Therapeutic index, ratio of CC50 for monkey VERO cells to IC50 for adult Brugia malayi; format: cell-based; conditions: for selectivity ratio: Vero cells, read-out: Ratio CC50/IC50
Brugia malayi [8] = assay: Antifilarial activity against adult Brugia malayi assessed as motility reduction at 5 uM/ml after 1 hr by microscopic analysis; format: functional
[9] = Cytotoxicity against African green monkey Vero cells after 72 hrs by resazurin dye-based fluorometric analysis; format: cell-based; conditions: chlorocebus sabaeus
Brugia malayi [10] = assay: Antifilarial activity against Brugia malayi microfilariae assessed as motility reduction at 0.625 uM/ml after 1 hr by microscopic analysis; format: functional
Brugia malayi [11] = assay: Antifilarial activity against adult Brugia malayi assessed as motility reduction at 1.25 uM/ml after 1 hr by microscopic analysis; format: functional
Brugia malayi [12] = assay: Antifilarial activity against Brugia malayi microfilariae assessed as motility reduction at 5 uM/ml after 1 hr by microscopic analysis; format: functional
Brugia malayi [13] = assay: Antifilarial activity against Brugia malayi microfilariae assessed as motility reduction after 1 hr by microscopic analysis; format: functional, organism-based
[14] = Therapeutic index, ratio of CC50 for monkey VERO cells to IC50 for Brugia malayi microfilariae; format: cell-based; conditions: for selectivity ratio: Vero cells, read-out: Ratio CC50/IC50
Brugia malayi [15] = assay: Antifilarial activity against adult Brugia malayi assessed as reduction in viability at 0.625 uM/ml after 24 to 48 hrs by MTT assay; format: functional
Brugia malayi [16] = assay: Antifilarial activity against adult Brugia malayi assessed as reduction in viability at 1.25 uM/ml after 24 to 48 hrs by MTT assay; format: functional
Brugia malayi [17] = assay: Antifilarial activity against adult Brugia malayi assessed as motility reduction at 0.625 uM/ml after 1 hr by microscopic analysis; format: functional
Brugia malayi [18] = assay: Antifilarial activity against Brugia malayi microfilariae assessed as motility reduction at 2.5 uM/ml after 1 hr by microscopic analysis; format: functional
Brugia malayi [19] = assay: Antifilarial activity against adult Brugia malayi assessed as reduction in viability at 10 uM/ml after 24 to 48 hrs by MTT assay; format: functional
Brugia malayi [20] = assay: Antifilarial activity against adult Brugia malayi assessed as motility reduction at 10 uM/ml after 1 hr by microscopic analysis; format: functional
Brugia malayi [21] = assay: Antifilarial activity against Brugia malayi microfilariae assessed as motility reduction at 10 uM/ml after 1 hr by microscopic analysis; format: functional
Brugia malayi [22] = assay: Antifilarial activity against adult Brugia malayi assessed as motility reduction at 0.6 uM/ml after 1 hr by microscopic analysis; format: functional, organism-based
Brugia malayi [23] = assay: Antifilarial activity against adult Brugia malayi assessed as reduction in viability at 0.3 uM/ml after 24 to 48 hrs by MTT assay; format: functional, organism-based
Brugia malayi [24] = assay: Antifilarial activity against Brugia malayi microfilariae assessed as motility reduction at 0.15 uM/ml after 1 hr by microscopic analysis; format: functional, organism-based
Brugia malayi [25] = assay: Antifilarial activity against Brugia malayi microfilariae assessed as motility reduction at 0.3 uM/ml after 1 hr by microscopic analysis; format: functional, organism-based
Brugia malayi [26] = assay: Antifilarial activity against adult Brugia malayi assessed as reduction in viability at 0.6 uM/ml after 24 to 48 hrs by MTT assay; format: functional, organism-based
Brugia malayi [27] = assay: Antifilarial activity against adult Brugia malayi assessed as reduction in viability at 0.15 uM/ml after 24 to 48 hrs by MTT assay; format: functional, organism-based
Brugia malayi [28] = assay: Antifilarial activity against adult Brugia malayi assessed as motility reduction at 0.3 uM/ml after 1 hr by microscopic analysis; format: functional, organism-based
Brugia malayi [29] = assay: Antifilarial activity against adult Brugia malayi assessed as motility reduction at 0.15 uM/ml after 1 hr by microscopic analysis; format: functional, organism-based
Brugia malayi [30] = assay: Antifilarial activity against Brugia malayi microfilariae assessed as motility reduction at 0.6 uM/ml after 1 hr by microscopic analysis; format: functional, organism-based

CCCc1cc(/C=N/Nc2nc3ccccc3s2)cc(/C=C/C(=O)c2ccc(Cl)cc2)c1O
Ki [1]: 26.6 µM

CC(C)(C)c1cc(/C=N/Nc2nc3ccccc3s2)cc(/C=C/C(=O)c2ccccc2)c1O
Ki [1]: 20.3 µM

Cc1ccc(C(=O)/C=C/c2cc(/C=N/Nc3nc4ccccc4s3)cc(C(C)(C)C)c2O)cc1
Ki [1]: 4.69 µM

CCCc1cc(/C=N/Nc2nc3ccccc3s2)cc(/C=C/C(=O)c2ccc(OC)c(OC)c2)c1O
Ki [1]: 27.1 µM

CC(C)c1cc(/C=N/Nc2nc3ccccc3s2)cc(/C=C/C(=O)c2cccs2)c1O
inhibition at 2.5 µM (Brugia malayi [2]): 50%
IC50 (Brugia malayi [3]): 2.12 µM
MIC (Brugia malayi [3]): 5 µM (≈ 2.24 µg/mL)
inhibition at 2.5 µM (Brugia malayi [4]): 40.3%
inhibition at 5 µM (Brugia malayi [5]): 85%
inhibition at 1.25 µM (Brugia malayi [6]): 50%
Ki [1]: 2.02 µM
selectivity ratio [7]: 44.9
inhibition at 5 µM (Brugia malayi [8]): 100%
CC50 at 72 h [9]: 95.3 µM
inhibition at 0.625 µM (Brugia malayi [10]): 1%
inhibition at 1.25 µM (Brugia malayi [11]): 1%
inhibition at 5 µM (Brugia malayi [12]): 100%
IC50 (Brugia malayi [13]): 1.63 µM
MIC (Brugia malayi [13]): 5 µM (≈ 2.24 µg/mL)
selectivity ratio [14]: 58.5
inhibition at 0.625 µM (Brugia malayi [15]): 8.7%
inhibition at 1.25 µM (Brugia malayi [16]): 9.3%
inhibition at 0.625 µM (Brugia malayi [17]): 1%
inhibition at 2.5 µM (Brugia malayi [18]): 75%

CCc1cc(/C=N/Nc2nc3ccccc3s2)cc(/C=C/C(=O)c2ccccc2)c1O
inhibition at 2.5 µM (Brugia malayi [2]): 1%
IC50 (Brugia malayi [3]): 4.34 µM
MIC (Brugia malayi [3]): 10 µM (≈ 4.28 µg/mL)
inhibition at 2.5 µM (Brugia malayi [4]): 30%
inhibition at 5 µM (Brugia malayi [5]): 48%
inhibition at 1.25 µM (Brugia malayi [6]): 1%
Ki [1]: 2.49 µM
selectivity ratio [7]: 11.2
inhibition at 10 µM (Brugia malayi [19]): 90.4%
inhibition at 5 µM (Brugia malayi [8]): 50%
CC50 at 72 h [9]: 48.6 µM
inhibition at 10 µM (Brugia malayi [20]): 100%
inhibition at 1.25 µM (Brugia malayi [11]): 1%
inhibition at 5 µM (Brugia malayi [12]): 75%
IC50 (Brugia malayi [13]): 2.64 µM
MIC (Brugia malayi [13]): 10 µM (≈ 4.28 µg/mL)
selectivity ratio [14]: 18.4
inhibition at 10 µM (Brugia malayi [21]): 100%
inhibition at 1.25 µM (Brugia malayi [16]): 10.5%
inhibition at 2.5 µM (Brugia malayi [18]): 75%

IVERMECTIN [listing 1 of 2 here]
inhibition (Brugia malayi [2]): 100%
MIC (Brugia malayi [3]): 8.9 µM
inhibition (Brugia malayi [4]): 50.5%
inhibition (Brugia malayi [22]): 100%
inhibition (Brugia malayi [5]): 62.9%
inhibition (Brugia malayi [6]): 75%
inhibition (Brugia malayi [23]): 10.7%
inhibition (Brugia malayi [19]): 76%
inhibition (Brugia malayi [8]): 100%
inhibition (Brugia malayi [24]): 0%
inhibition (Brugia malayi [25]): 0%
inhibition (Brugia malayi [20]): 100%
inhibition (Brugia malayi [11]): 100%
inhibition (Brugia malayi [26]): 22.9%
inhibition (Brugia malayi [12]): 75%
inhibition (Brugia malayi [27]): 15.7%
inhibition (Brugia malayi [28]): 50%
MIC (Brugia malayi [13]): 10 µM
inhibition (Brugia malayi [29]): 1%
inhibition (Brugia malayi [30]): 50%
inhibition (Brugia malayi [21]): 100%
inhibition (Brugia malayi [16]): 34.9%
inhibition (Brugia malayi [18]): 75%

CCc1cc(/C=N/Nc2nc3ccccc3s2)cc(/C=C/C(=O)c2ccc(OC)cc2)c1O
Ki [1]: 30.4 µM

IVERMECTIN [listing 2 of 2 here]
Ratio CC50/IC50 ([7]; vero): 29.5
Ratio CC50/IC50 ([14]; vero): 13.28

COc1ccc(C(=O)/C=C/c2cc(/C=N/Nc3nc4ccccc4s3)cc(C(C)C)c2O)cc1
Ki [1]: 3.09 µM

COc1ccc(C(=O)/C=C/c2cc(/C=N/Nc3nc4ccccc4s3)cc(C(C)C)c2O)cc1OC
Ki [1]: 50.6 µM

CC(C)c1cc(/C=N/Nc2nc3ccccc3s2)cc(/C=C/C(=O)c2ccc(Cl)cc2)c1O
Ki [1]: 22.8 µM

CC(C)(C)c1cc(/C=N/Nc2nc3ccccc3s2)cc(/C=C/C(=O)c2ccc(F)cc2)c1O
Ki [1]: 3.17 µM

CCC(C)c1cc(/C=N/Nc2nc3ccccc3s2)cc(/C=C/C(=O)c2ccc(OC)cc2)c1O (stereo not drawn)
Ki [1]: 4.89 µM

Cc1cc(/C=N/Nc2nc3ccccc3s2)cc(/C=C/C(=O)c2ccccc2)c1O
Ki [1]: 16.5 µM

CCC(C)c1cc(/C=N/Nc2nc3ccccc3s2)cc(/C=C/C(=O)c2ccc(F)cc2)c1O (stereo not drawn)
Ki [1]: 7.91 µM

CC(C)c1cc(/C=N/Nc2nc3ccccc3s2)cc(/C=C/C(=O)c2ccc(F)cc2)c1O
Ki [1]: 21.6 µM
